Activity calls are given as the source filed them. The calls are words filed in the database; no cut-off is given here.
Assays:
NCI/ADR-RES = assay: cells; settings: Homo sapiens, 48 h
Description: Antiproliferative activity against human MCF7ADR cells assessed as cell growth inhibition incubated for 48 hrs by MTT assay

A549 [1] = assay: Antitumor activity against human A549 cells xenografted in Balb/c mouse assessed as tumor size at 50 mg/kg,ip administration measured after 31 days; format: functional; settings: time 31 day
A549 [2] = assay: Induction of apoptosis in human A549 cells assessed as reduction of mitochondrial membrane potential incubated for 16 hrs by JC-1 staining based flow cytometry analysis; format: functional, cell-based
[3] = AUC (0 to t) in CD-1 mouse at 10 mg/kg,ip measured upto 24 hrs by HPLC-MS/MS analysis; format: ADME, organism-based; design: dose 10 mg/kg, time < 24 hrs, route ip; settings: in vivo
[4] = MRT (0 to infinity) in CD-1 mouse at 10 mg/kg,ip measured upto 24 hrs by HPLC-MS/MS analysis; format: ADME, organism-based; settings: in vivo
[5] = Oral bioavailability in CD-1 mouse assessed as Oral bioavailability of metabolite at 10 mg/kg,ip measured upto 24 hrs by HPLC-MS/MS analysis; format: ADME, organism-based; settings: in vivo
MCF7 = assay: cells; settings: Homo sapiens, MCF7, 48 h
Description: Antiproliferative activity against human MCF7 cells assessed as cell growth inhibition incubated for 48 hrs by MTT assay

A2780 = assay: Antiproliferative activity against human A2780 cells assessed as cell growth inhibition incubated for 48 hrs by MTT assay; format: functional, cell-based; settings: A2780, 48 h
[6] = Half life in CD-1 mouse at 10 mg/kg,ip measured upto 24 hrs by HPLC-MS/MS analysis; format: ADME, organism-based; settings: in vivo
[7] = Cmax in CD-1 mouse at 10 mg/kg,ip measured upto 24 hrs by HPLC-MS/MS analysis; format: ADME, organism-based; design: time < 24 hrs, dose 10 mg/kg, route ip; settings: in vivo
[8] = Toxicity in Balb/c mouse xenografted with human A549 cells assessed as effect on liver morphology at 50 mg/kg,ip administration measured after 31 days by Hematoxylin-eosin staining based microscopy; format: organism-based; settings: in vivo, 744 h, time 31 day
[9] = AUC (0 to t) in CD-1 mouse assessed as AUC (0 to t) of metabolite at 10 mg/kg,ip measured upto 24 hrs by HPLC-MS/MS analysis; format: ADME, organism-based; design: dose 10 mg/kg, time < 24 hrs, route ip; settings: in vivo
HepG2 = assay: Cytotoxicity against human HepG2 cells assessed as cell growth inhibition incubated for 48 hrs by MTT assay; format: functional, cell-based; settings: HepG2, 48 h
[10] = Acute toxicity in C57BL/6 mouse assessed as maximum tolerated dose administered intravenously for 5 consecutive days; settings: in vivo, route iv
[11] = target: JAK2-STAT3 (Homo sapiens) (UniProt O60674+P40763); assay: Inhibition of JAK2/STAT3 signalling pathway in human A549 cells assessed as downregulation of STAT3 phosphorylation incubated for 24 hrs by Western blotting analysis; format: cell-based
Tubulin (Homo sapiens) = Tubulin (Homo sapiens) (UniProt P68371+Q9H4B7+P0DPH7+P68366+Q13509+Q71U36+P04350+Q3ZCM7+P07437+P68363+Q9BQE3+Q6PEY2+Q13885+Q9BVA1+Q9BUF5); assay: Disruption of microtubule assembly in human A549 cells at 1 uM incubated for 6 hrs by Hoechst33342 staining based immunofluorescence analysis; format: cell-based
[12] = Cytotoxicity against human ARPE-19 cells assessed as cell growth inhibition incubated for 48 hrs by MTT assay; format: toxicity, cell-based
A549 [13] = assay: Induction of cell cycle arrest in human A549 cells assessed as accumulation of cells at G2/M phase at 10 nM incubated for 24 hrs by PI/RNase staining based flow cytometry analysis; format: functional
[14] = Toxicity in Balb/c mouse xenografted with human A549 cells assessed as effect on heart morphology at 50 mg/kg,ip administration measured after 31 days by Hematoxylin-eosin staining based microscopy; format: organism-based; settings: in vivo, 744 h, time 31 day
BXPC-3 = assay: Antiproliferative activity against human BXPC-3 cells assessed as cell growth inhibition incubated for 48 hrs by MTT assay; format: functional, cell-based; settings: BXPC-3, 48 h
A549 [15] = assay: Induction of apoptosis in human A549 cells assessed as necrotic cells at 5 nM incubated for 24 hrs by Annexin V-FITC/PI staining based flow cytometry (reference value: 0.67 %); format: functional
A549 [16] = assay: Induction of mitochondrial membrane potential loss in human A549 cells by measuring red fluorescence at 10 nM incubated for 16 hrs by JC-1 staining based flow cytometry analysis (reference value: 99.3 %); format: functional
A549 [17] = assay: Induction of apoptosis in human A549 cells assessed as late apoptotic cells at 5 nM incubated for 24 hrs by Annexin V-FITC/PI staining based flow cytometry (reference value: 1.72 %); format: functional
[18] = Antiproliferative activity against human A549/DDP cells assessed as cell growth inhibition incubated for 48 hrs by MTT assay; format: functional, cell-based
A549 [19] = assay: Induction of apoptosis in human A549 cells at 10 uM incubated for 24 hrs by Annexin V-FITC/PI staining based flow cytometry; format: functional
A549 [20] = assay: Induction of apoptosis in human A549 cells assessed as early apoptotic cells at 20 nM incubated for 24 hrs by Annexin V-FITC/PI staining based flow cytometry (reference value: 4.61 %); format: functional
A2780/Taxol = assay: Antiproliferative activity against human A2780T cells assessed as cell growth inhibition incubated for 48 hrs by MTT assay; format: functional, cell-based
HCT-8 = assay: Antiproliferative activity against human HCT-8 cells assessed as cell growth inhibition incubated for 48 hrs by MTT assay; format: functional, cell-based; settings: HCT-8, 48 h
[21] = Tmax in CD-1 mouse assessed as Tmax of metabolite at 10 mg/kg,ip measured upto 24 hrs by HPLC-MS/MS analysis; format: ADME, organism-based; settings: in vivo
[22] = Metabolic stability in mouse liver microsomes assessed as half life incubated for 10 mins in presence of NADPH by LC-MS/MS analysis; format: ADME, Microsome
A549 [23] = assay: Induction of mitochondrial membrane potential loss in human A549 cells by measuring green fluorescence at 10 nM incubated for 16 hrs by JC-1 staining based flow cytometry analysis (reference value: 0.7 %); format: functional
[24] = Resistance index, ratio of IC50 for antiproliferative activity against human A549/DDP cells to IC50 for antiproliferative activity against human A549 cells; format: functional
COLO 205 = assay: Cytotoxicity against human COLO 205 cells assessed as cell growth inhibition incubated for 48 hrs by MTT assay; format: functional, cell-based; settings: COLO 205, 48 h
A549 [25] = assay: Induction of mitochondrial membrane potential loss in human A549 cells by measuring green fluorescence at 5 nM incubated for 16 hrs by JC-1 staining based flow cytometry analysis (reference value: 0.7 %); format: functional
[26] = Tmax in CD-1 mouse at 10 mg/kg,ip measured upto 24 hrs by HPLC-MS/MS analysis; format: ADME, organism-based; settings: in vivo
A549 [27] = assay: Induction of apoptosis in human A549 cells assessed as early apoptotic cells at 10 nM incubated for 24 hrs by Annexin V-FITC/PI staining based flow cytometry (reference value: 4.61 %); format: functional
[28] = Antiproliferative activity against Chinese hamster CHO-K1 cells assessed as cell growth inhibition incubated for 48 hrs by MTT assay; format: toxicity, cell-based, Cricetulus griseus
[29] = AUC (0 to t) in CD-1 mouse at 1 mg/kg,iv measured upto 24 hrs by HPLC-MS/MS analysis; format: ADME, organism-based; design: dose 1 mg/kg, time < 24 hrs, route iv; settings: in vivo
A549 [30] = assay: Induction of apoptosis in human A549 cells assessed as increase in mitochondrial ROS level at 5 to 20 nM incubated for 16 hrs by MitoSOX red dye based fluorescence microscopy; format: functional, cell-based; settings: dose 5-20 nM

With `COc1cc(-c2nccc3nc(Nc4cccc5[nH]ccc45)nn23)cc(OC)c1OC` the IC50 (NCI/ADR-RES) was 64 nM, the Activity (A549 [1]) was 315.8 mm3 and the Activity (A549 [2]) was “Dose-Dependent Effect”. It also gave an AUC(0-t) at 24 h [3] of 559 ng·h/mL, an MRT inf [4] of 5.6 h and an F [5] of 69.7%. For the same compound, the IC50 (MCF7) was 18 nM, the IC50 (A2780) was 75 nM and the half-life [6] was 5.5 h. The Cmax [7] was 158 ng/mL, the Activity [8] was “Non-Toxic” and the AUCt [9] was 2534.7 ng·h/mL. For the same compound, the IC50 (HepG2) was 51.8 nM, the MTD at 5 days [10] was 100 mg/kg and the inhibition [11] was “Dose-Dependent Effect”. For the same compound, the Activity (Tubulin (Homo sapiens)) was “Active”, the IC50 at 48 h [12] was 5030 nM and the Activity (A549 [13]) was 32.9%. The Activity [14] was “Non-Toxic”, the IC50 (BXPC-3) was 11 nM and the Activity (A549 [15]) was 0.21%. For the same compound, the Activity (A549 [16]) was 73.6%, the Activity (A549 [17]) was 1.78% and the IC50 [18] was 36 nM. For the same compound, the Activity (A549 [19]) was 40.6%, the Activity (A549 [20]) was 34.6% and the IC50 (A2780/Taxol) was 20 nM. It also gave an IC50 (HCT-8) of 34 nM, a Tmax [21] of 1 h and a half-life [22] of 0.362 h. For the same compound, the Activity (A549 [23]) was 15.4%, the “Ratio IC50” value [24] was 0.5 and the IC50 (COLO 205) was 12.1 nM. It also gave an Activity (A549 [25]) of 10.9%, a Tmax [26] of 0.5 h and an Activity (A549 [27]) of 27.3%. For the same compound, the IC50 at 48 h [28] was 130 nM, the AUC(0-t) at 24 h [29] was 364 ng·h/mL and the Activity (A549 [30]) was “Active”.

From ChEMBL document CHEMBL5390242, “Design, Synthesis, and Antitumor Efficacy of Substituted 2-Amino[1,2,4]triazolopyrimidines and Related Heterocycles as Dual Inhibitors for Microtubule Polymerization and Janus Kinase 2” (J Med Chem, 2023)
